Measurements: article PMC6576746, “Rational discovery of dual-indication multi-target PDE/Kinase inhibitor for precision anti-cancer therapy using structural systems pharmacology” (PLoS Computational Biology, 2019)

Columns and labels:
Experiment in all cases: biochemical
Design in all cases: DiscoverX KinomeScan competition binding assay across human kinases; per cent of control at 10 and 100 uM
Conditions in all cases: competition binding, % of control; read-out: Percent Control (100 uM Levosimendan)
PRKD1 = PRKD1 (Homo sapiens, UniProt Q15139)
Procedure, shortened: (§1)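 Binding is expressed as %control, normalised between positive and negative control signals. The compound (levosimendan) was tested at 10 μM and 100 μM in the DiscoverX KinomeScan competition binding format against human kinases.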

PIM1 = PIM1 (Homo sapiens, UniProt P11309)
Procedure, shortened: as §1

CAMK1D = CAMK1D (Homo sapiens, UniProt Q8IU85)
Procedure, shortened: as §1

CASK = CASK (Homo sapiens, UniProt O14936)
Procedure, shortened: as §1

PAK1 = PAK1 (Homo sapiens, UniProt Q13153)
Procedure, shortened: as §1

[1] = biological target: T1, RSK4(Kin.Dom.1-N-terminal) (Homo sapiens, UniProt Q9UK32)
T1 construct: gene RPS6KA6; Kin.Dom.1-N-terminal
Procedure, shortened: as §1

[2] = biological target: T2, ABL1(H396P)-phosphorylated (Homo sapiens, UniProt P00519, H396P)
T2 construct: phosphorylated
Procedure, shortened: as §1

LKB1 = biological target: T3, LKB1 (Homo sapiens, UniProt Q15831)
T3 construct: gene STK11
Procedure, shortened: as §1

[3] = biological target: T4, ABL1(T315I)-phosphorylated (Homo sapiens, UniProt P00519, T315I)
T4 construct: phosphorylated
Procedure, shortened: as §1

[4] = biological target: T5, RPS6KA4(Kin.Dom.2-C-terminal) (Homo sapiens, UniProt O75676)
T5 construct: Kin.Dom.2-C-terminal
Procedure, shortened: as §1

CDK4 = CDK4 (Homo sapiens, UniProt P11802)
Procedure, shortened: as §1

EGFR(E746-A750del) = EGFR(E746-A750del) (Homo sapiens, UniProt P00533, DEL746-750)
Procedure, shortened: as §1

IRAK1 = IRAK1 (Homo sapiens, UniProt P51617)
Procedure, shortened: as §1

ALK(C1156Y) = ALK(C1156Y) (Homo sapiens, UniProt Q9UM73, C1156Y)
Procedure, shortened: as §1

DCAMKL3 = biological target: T6, DCAMKL3 (Homo sapiens, UniProt Q9C098)
T6 construct: gene DCLK3
Procedure, shortened: as §1

PAK2 = PAK2 (Homo sapiens, UniProt Q13177)
Procedure, shortened: as §1

MAP4K4 = MAP4K4 (Homo sapiens, UniProt O95819)
Procedure, shortened: as §1

MST2 = biological target: T7, MST2 (Homo sapiens, UniProt Q13188)
T7 construct: gene STK3
Procedure, shortened: as §1

SLK = SLK (Homo sapiens, UniProt Q9H2G2)
Procedure, shortened: as §1

Sequence of PAK1 (Q13153 whole entry): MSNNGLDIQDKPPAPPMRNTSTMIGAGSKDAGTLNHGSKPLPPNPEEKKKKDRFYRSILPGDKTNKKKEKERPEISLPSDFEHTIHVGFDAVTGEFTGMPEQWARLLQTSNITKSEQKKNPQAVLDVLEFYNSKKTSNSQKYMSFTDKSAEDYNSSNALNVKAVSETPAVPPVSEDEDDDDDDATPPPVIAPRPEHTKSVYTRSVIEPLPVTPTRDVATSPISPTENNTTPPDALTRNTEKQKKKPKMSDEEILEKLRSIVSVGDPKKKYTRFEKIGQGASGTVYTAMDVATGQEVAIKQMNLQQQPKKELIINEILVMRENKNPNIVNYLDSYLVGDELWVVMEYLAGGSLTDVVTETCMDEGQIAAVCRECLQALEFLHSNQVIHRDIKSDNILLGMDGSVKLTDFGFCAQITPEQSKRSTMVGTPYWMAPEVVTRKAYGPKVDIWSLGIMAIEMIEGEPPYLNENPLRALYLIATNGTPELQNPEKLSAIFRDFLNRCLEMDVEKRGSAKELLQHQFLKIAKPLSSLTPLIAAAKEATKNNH
Sequence of PIM1 (P11309 whole entry): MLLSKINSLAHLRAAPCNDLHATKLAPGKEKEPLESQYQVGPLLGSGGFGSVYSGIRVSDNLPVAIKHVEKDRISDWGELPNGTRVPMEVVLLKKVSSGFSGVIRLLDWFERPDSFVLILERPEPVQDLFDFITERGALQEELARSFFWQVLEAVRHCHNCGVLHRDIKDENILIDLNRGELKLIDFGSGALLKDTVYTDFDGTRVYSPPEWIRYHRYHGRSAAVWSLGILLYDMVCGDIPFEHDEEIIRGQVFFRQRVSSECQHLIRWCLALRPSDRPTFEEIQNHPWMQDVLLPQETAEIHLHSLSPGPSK
Sequence of CDK4 (P11802 whole entry): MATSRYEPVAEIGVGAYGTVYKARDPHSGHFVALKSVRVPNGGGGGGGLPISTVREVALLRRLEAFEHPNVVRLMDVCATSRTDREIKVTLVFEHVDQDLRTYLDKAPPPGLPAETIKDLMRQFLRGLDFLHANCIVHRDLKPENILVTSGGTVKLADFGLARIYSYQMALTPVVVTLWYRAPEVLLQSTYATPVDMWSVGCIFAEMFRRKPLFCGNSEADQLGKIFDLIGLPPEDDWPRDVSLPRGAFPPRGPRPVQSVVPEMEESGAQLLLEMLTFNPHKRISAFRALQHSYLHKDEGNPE
T7 sequence (Q13188 whole entry): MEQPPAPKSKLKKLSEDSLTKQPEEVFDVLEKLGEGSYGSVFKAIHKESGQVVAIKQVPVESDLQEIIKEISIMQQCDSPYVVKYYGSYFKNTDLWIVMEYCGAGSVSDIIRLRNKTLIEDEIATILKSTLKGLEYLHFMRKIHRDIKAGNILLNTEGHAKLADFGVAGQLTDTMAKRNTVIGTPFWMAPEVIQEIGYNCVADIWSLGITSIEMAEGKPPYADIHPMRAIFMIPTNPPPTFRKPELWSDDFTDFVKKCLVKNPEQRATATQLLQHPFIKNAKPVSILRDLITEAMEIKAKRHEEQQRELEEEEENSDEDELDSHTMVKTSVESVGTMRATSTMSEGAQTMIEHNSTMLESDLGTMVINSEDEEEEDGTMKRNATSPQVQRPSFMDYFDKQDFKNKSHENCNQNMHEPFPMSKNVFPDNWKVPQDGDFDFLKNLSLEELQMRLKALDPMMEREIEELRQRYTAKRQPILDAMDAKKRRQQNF
Sequence of MAP4K4 (O95819 whole entry): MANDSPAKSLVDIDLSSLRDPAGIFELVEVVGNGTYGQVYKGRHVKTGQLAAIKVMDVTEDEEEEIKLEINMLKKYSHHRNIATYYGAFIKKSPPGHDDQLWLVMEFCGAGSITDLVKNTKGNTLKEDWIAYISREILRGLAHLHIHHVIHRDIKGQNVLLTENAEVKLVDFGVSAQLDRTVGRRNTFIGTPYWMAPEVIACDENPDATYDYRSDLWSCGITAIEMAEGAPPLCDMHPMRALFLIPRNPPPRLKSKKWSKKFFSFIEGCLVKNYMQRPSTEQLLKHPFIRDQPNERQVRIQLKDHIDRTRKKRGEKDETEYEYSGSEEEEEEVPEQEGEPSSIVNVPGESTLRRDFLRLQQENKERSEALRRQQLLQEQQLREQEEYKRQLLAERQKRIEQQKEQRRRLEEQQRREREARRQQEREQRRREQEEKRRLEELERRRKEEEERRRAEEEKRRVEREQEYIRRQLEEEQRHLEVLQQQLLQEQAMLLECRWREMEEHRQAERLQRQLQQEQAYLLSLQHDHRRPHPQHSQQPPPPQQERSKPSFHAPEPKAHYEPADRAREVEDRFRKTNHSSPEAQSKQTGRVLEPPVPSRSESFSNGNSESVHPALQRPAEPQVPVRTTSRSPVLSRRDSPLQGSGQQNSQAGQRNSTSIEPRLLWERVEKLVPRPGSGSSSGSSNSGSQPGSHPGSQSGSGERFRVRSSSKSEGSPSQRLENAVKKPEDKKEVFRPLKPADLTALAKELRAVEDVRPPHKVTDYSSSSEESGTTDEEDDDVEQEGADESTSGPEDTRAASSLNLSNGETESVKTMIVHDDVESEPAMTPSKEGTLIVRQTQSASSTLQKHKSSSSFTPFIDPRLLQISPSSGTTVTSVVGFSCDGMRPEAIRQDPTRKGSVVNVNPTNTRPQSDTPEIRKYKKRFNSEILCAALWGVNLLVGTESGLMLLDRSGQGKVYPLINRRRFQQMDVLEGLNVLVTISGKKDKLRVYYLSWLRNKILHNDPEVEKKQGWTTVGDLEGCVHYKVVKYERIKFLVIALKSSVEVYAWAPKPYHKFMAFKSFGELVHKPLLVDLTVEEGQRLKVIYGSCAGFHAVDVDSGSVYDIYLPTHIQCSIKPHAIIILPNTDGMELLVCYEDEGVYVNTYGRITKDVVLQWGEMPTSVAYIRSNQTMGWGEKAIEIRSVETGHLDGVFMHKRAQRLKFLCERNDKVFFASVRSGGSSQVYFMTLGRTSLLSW
Sequence of CASK (O14936 whole entry): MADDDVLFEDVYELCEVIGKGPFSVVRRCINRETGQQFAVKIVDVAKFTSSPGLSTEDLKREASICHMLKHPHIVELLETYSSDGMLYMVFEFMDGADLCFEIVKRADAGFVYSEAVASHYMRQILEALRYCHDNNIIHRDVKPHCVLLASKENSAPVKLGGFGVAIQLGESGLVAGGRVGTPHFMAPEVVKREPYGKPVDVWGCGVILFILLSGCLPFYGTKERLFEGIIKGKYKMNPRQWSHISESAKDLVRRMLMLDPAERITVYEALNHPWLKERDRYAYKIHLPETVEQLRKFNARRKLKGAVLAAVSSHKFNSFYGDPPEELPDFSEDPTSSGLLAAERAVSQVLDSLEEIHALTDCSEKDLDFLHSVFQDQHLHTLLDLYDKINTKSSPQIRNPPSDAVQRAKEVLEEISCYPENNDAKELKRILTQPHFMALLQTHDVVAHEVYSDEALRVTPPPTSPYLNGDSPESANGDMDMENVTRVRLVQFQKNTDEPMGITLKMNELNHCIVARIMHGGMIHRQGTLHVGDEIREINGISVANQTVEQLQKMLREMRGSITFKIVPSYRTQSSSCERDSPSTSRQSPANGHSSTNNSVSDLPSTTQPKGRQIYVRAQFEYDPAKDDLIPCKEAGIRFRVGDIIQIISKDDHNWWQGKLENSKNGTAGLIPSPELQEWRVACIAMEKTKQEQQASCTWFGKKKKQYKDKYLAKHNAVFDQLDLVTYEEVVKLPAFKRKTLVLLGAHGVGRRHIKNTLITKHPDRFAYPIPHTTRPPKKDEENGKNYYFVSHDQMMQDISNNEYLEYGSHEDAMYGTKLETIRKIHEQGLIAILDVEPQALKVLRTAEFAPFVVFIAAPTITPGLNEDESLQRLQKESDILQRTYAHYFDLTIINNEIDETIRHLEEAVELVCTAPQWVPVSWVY
Sequence of SLK (Q9H2G2 whole entry): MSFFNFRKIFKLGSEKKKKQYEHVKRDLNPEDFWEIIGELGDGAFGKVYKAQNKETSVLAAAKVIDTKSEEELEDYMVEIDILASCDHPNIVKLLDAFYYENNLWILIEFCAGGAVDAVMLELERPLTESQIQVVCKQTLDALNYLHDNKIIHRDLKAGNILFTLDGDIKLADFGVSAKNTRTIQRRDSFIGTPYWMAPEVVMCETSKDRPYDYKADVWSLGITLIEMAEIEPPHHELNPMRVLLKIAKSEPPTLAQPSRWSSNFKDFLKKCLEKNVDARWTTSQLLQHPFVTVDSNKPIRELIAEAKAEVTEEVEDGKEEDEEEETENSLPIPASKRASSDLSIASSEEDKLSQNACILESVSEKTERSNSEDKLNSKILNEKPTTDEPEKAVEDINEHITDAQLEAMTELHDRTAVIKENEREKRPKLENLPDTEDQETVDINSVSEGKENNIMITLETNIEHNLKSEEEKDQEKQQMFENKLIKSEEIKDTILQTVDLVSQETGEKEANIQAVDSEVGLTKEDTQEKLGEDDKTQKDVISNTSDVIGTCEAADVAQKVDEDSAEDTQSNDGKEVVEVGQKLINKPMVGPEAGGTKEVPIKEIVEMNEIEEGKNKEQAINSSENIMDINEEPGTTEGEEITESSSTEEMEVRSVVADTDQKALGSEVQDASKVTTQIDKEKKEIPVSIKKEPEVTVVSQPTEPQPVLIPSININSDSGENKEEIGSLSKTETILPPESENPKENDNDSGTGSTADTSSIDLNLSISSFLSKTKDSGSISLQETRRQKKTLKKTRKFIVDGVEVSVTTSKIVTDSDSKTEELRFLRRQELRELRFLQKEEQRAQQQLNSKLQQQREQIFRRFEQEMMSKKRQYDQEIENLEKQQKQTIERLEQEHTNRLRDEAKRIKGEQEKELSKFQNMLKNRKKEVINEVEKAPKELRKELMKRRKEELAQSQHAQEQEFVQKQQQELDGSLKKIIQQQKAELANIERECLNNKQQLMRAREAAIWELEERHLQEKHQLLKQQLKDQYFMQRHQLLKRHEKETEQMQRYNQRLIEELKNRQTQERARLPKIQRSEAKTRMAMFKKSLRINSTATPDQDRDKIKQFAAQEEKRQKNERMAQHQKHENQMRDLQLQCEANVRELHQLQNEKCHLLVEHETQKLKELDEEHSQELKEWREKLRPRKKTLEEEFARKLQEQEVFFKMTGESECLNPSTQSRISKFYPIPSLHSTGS

## C[C@@H]1CC(=O)NN=C1c1ccc(NN=C(C#N)C#N)cc1 [levosimendan]
PRKD1
  remaining binding at 100 µM: 96%
PIM1
  remaining binding at 100 µM: 64%
CAMK1D
  remaining binding at 100 µM: 57%
CASK
  remaining binding at 100 µM: 88%
PAK1
  remaining binding at 100 µM: 73%
[1]
  remaining binding at 100 µM: 100%
[2]
  remaining binding at 100 µM: 68%
LKB1
  remaining binding at 100 µM: 100%
[3]
  remaining binding at 100 µM: 64%
[4]
  remaining binding at 100 µM: 95%
CDK4
  remaining binding at 100 µM: 100%
EGFR(E746-A750del)
  remaining binding at 100 µM: 63%
IRAK1
  remaining binding at 100 µM: 61%
ALK(C1156Y)
  remaining binding at 100 µM: 64%
DCAMKL3
  remaining binding at 100 µM: 100%
PAK2
  remaining binding at 100 µM: 78%
MAP4K4
  remaining binding at 100 µM: 100%
MST2
  remaining binding at 100 µM: 100%
SLK
  remaining binding at 100 µM: 85%
